The values below come from PubChem BioAssay (NCI).

Structures are written as SMILES.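 Exposure lasted 48 hours, with cells grown in 96-well plates and compounds tested at five concentrations. GI50 is the concentration that inhibits growth by half. TGI is the concentration that stops growth completely.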

The subject of one experiment is IGROV1 ovarian. Put plainly: NCI tumour cell line growth inhibition, 48 h.
Take `CCCCCCCCN=C(N)c1ccc(N2CCN(c3ccc(C(N)=NCCCCCCCC)cc3)CC2)cc1`: the GI50 is 1.62 µM and the TGI is greater than 50 µM.
On to `NNC(=O)/C(=C/c1ccc(Cl)cc1Cl)NC(=O)c1ccccc1`, for which the TGI was greater than 100 µM.
Still for that read-out and setting: the same measure for `COc1cc(OC(C)=O)cc2c(OC(C)=O)ccc(OC(C)=O)c12`: greater than 100 µM.
`COc1ccc2c(c1)cn1c3ccc(O)cc3nc(N)c21`: the GI50 was 0.176 µM and the TGI amounted to 6.59 µM.
On the same counts, the results for `OC(c1cc(-c2ccccc2)nc2ccc(Cl)cc12)C1CCCCN1` (configuration not stated) are 1.9 µM and 4.19 µM.
`CCc1ccccc1NC(=O)C(=O)CC(=O)c1sc(Nc2ccccc2)nc1C` returned a TGI greater than 100 µM.
As to `CC#C[C@]1(O)CC[C@H]2[C@@H]3CCC4=CC(=O)CCC4=C3[C@@H](c3ccc4c(c3)OCO4)C[C@@]21C`, the GI50 is 59.9 µM and the TGI was found to be 589 µM.
On the same counts, the results for `COc1ccc(OC)c(/C=C2\SC(=S)NC2=O)c1` are 31.2 µM and greater than 100 µM.

The test system of the next experiment is NCI-H23 lung. Nature of the experiment: NCI tumour cell line growth inhibition, 48 h.
As to `COc1ccc(-c2c3c(N)nc(-c4ccncc4)nc3nc3c2c(C)nn3-c2ccccc2)cc1`, the GI50 was 9.67 µM and the TGI is greater than 100 µM.
On the same counts, the results for `COc1cccc(-n2ncc3c(N/N=C/c4ccc(C(=O)NCCN(C)C)cc4)ncnc32)c1` are 3.89 µM and 8.29 µM.
`O=c1/c(=C/c2ccccc2F)sc2nc3ccccc3n12` registered a TGI greater than 100 µM.
With `CC1(C)CC(=O)c2c(C(F)(F)F)nn(-c3ccc(C(N)=O)c(NC4CCC(OC(=O)CN)CC4)c3)c2C1` (configuration not stated), the GI50 is 0.0935 µM and the TGI is greater than 100 µM.
For `O=C(NCCCCCCNC(=O)n1cc(F)c(=O)[nH]c1=O)NCCCOCCOCCOCCOCCOCCOCCOCCOCCOCCOCCOCCOCCOCCOCCOCCOCCOCCOCCOCCOCCOCCCNC(=O)C(O)C(O)C(O)C(O)CO` (configuration not stated), the TGI is greater than 100 µM.
For `COc1cc(C2CC(c3ccc4c(c3)OCO4)=NN2C=O)cc(OC)c1OC` (configuration not stated), the GI50 is 4.14 µM and the TGI was greater than 100 µM.
The molecule `CCCC(=O)OC1C(C(O)CO)OC2OC(C)(C)OC21` (configuration not stated) came in with a TGI greater than 100 µM.
On the same count and under the same terms, then `Cc1ccc(N=Cc2ccc3c(c2)OCO3)cc1C`, with greater than 100 µM.
As for `COC(=O)[C@H](C[C@H](Cc1ccccc1)NC(=O)c1csc([C@@H](C[C@H](C(C)C)N(C)C(=O)[C@@H](NC(=O)[C@H]2CCCCN2C)C(C)C)OC(C)=O)n1)NC(=O)OCc1ccccc1`, the GI50 was 0.00111 µM and the TGI is greater than 9 µM.
In the same order, the values of `CCCCCCCCN=C(N)c1ccc(N2CCN(c3ccc(C(N)=NCCCCCCCC)cc3)CC2)cc1` are 1.52 µM and 6.49 µM.
Take `NNC(=O)/C(=C/c1ccc(Cl)cc1Cl)NC(=O)c1ccccc1`: the TGI was greater than 100 µM.
Same read-out and setting: then `COc1cc(OC(C)=O)cc2c(OC(C)=O)ccc(OC(C)=O)c12`, with greater than 100 µM.
Take `COc1ccc2c(c1)cn1c3ccc(O)cc3nc(N)c21`: the GI50 was 0.394 µM and the TGI was found to be 17.7 µM.
In the same order, the values of `OC(c1cc(-c2ccccc2)nc2ccc(Cl)cc12)C1CCCCN1` (configuration not stated) are 1.79 µM and 3.42 µM.
As for `CCc1ccccc1NC(=O)C(=O)CC(=O)c1sc(Nc2ccccc2)nc1C`, the TGI was greater than 100 µM.
In the case of `CC#C[C@]1(O)CC[C@H]2[C@@H]3CCC4=CC(=O)CCC4=C3[C@@H](c3ccc4c(c3)OCO4)C[C@@]21C`, the GI50 is 152 µM and the TGI was greater than 1000 µM.
On the same counts, the results for `COc1ccc(OC)c(/C=C2\SC(=S)NC2=O)c1` are 23.1 µM and 68.6 µM.

Another experiment concerns TK-10 renal. Put plainly: NCI tumour cell line growth inhibition, 48 h.
Consider `COc1ccc(-c2c3c(N)nc(-c4ccncc4)nc3nc3c2c(C)nn3-c2ccccc2)cc1`, for which the GI50 is 3.71 µM and the TGI turned out to be 14.6 µM.
In the case of `COc1cccc(-n2ncc3c(N/N=C/c4ccc(C(=O)NCCN(C)C)cc4)ncnc32)c1`, the GI50 is 3.4 µM and the TGI is 6.8 µM.
In turn, `O=c1/c(=C/c2ccccc2F)sc2nc3ccccc3n12` returned a TGI greater than 100 µM.
For `CC1(C)CC(=O)c2c(C(F)(F)F)nn(-c3ccc(C(N)=O)c(NC4CCC(OC(=O)CN)CC4)c3)c2C1` (configuration not stated), the GI50 is 0.0592 µM and the TGI is greater than 100 µM.
Turning to `O=C(NCCCCCCNC(=O)n1cc(F)c(=O)[nH]c1=O)NCCCOCCOCCOCCOCCOCCOCCOCCOCCOCCOCCOCCOCCOCCOCCOCCOCCOCCOCCOCCOCCOCCCNC(=O)C(O)C(O)C(O)C(O)CO` (configuration not stated), the TGI was greater than 100 µM.
In the case of `COc1cc(C2CC(c3ccc4c(c3)OCO4)=NN2C=O)cc(OC)c1OC` (configuration not stated), the GI50 is greater than 29.9 µM and the TGI is greater than 100 µM.
As for `CCCC(=O)OC1C(C(O)CO)OC2OC(C)(C)OC21` (configuration not stated), the TGI is greater than 100 µM.
Same read-out and setting: then `Cc1ccc(N=Cc2ccc3c(c2)OCO3)cc1C`, with greater than 100 µM.
Consider `COC(=O)[C@H](C[C@H](Cc1ccccc1)NC(=O)c1csc([C@@H](C[C@H](C(C)C)N(C)C(=O)[C@@H](NC(=O)[C@H]2CCCCN2C)C(C)C)OC(C)=O)n1)NC(=O)OCc1ccccc1`, for which the GI50 is 0.11 µM and the TGI was greater than 9 µM.
As to `CCCCCCCCN=C(N)c1ccc(N2CCN(c3ccc(C(N)=NCCCCCCCC)cc3)CC2)cc1`, the GI50 is 1.72 µM and the TGI was 8.92 µM.
In turn, `NNC(=O)/C(=C/c1ccc(Cl)cc1Cl)NC(=O)c1ccccc1` gave a TGI greater than 100 µM.
The same measure, in the same setting: the same measure for `COc1cc(OC(C)=O)cc2c(OC(C)=O)ccc(OC(C)=O)c12`: greater than 100 µM.
Take `COc1ccc2c(c1)cn1c3ccc(O)cc3nc(N)c21`: the GI50 is 1.13 µM and the TGI stood at 5.6 µM.
In the same order, the values of `OC(c1cc(-c2ccccc2)nc2ccc(Cl)cc12)C1CCCCN1` (configuration not stated) are 4.06 µM and 16.2 µM.
Take `CCc1ccccc1NC(=O)C(=O)CC(=O)c1sc(Nc2ccccc2)nc1C`: the TGI was greater than 100 µM.
In the case of `CC#C[C@]1(O)CC[C@H]2[C@@H]3CCC4=CC(=O)CCC4=C3[C@@H](c3ccc4c(c3)OCO4)C[C@@]21C`, the GI50 is 125 µM and the TGI amounted to 461 µM.
On the same counts, the results for `COc1ccc(OC)c(/C=C2\SC(=S)NC2=O)c1` are 28.8 µM and greater than 100 µM.
